Source: patent US20220062240A1, “METHODS OF TREATING CANCER USING A CLK INHIBITOR” (BioSplice Therapeutics, Inc., priority 2018, published 2022)
Like-named read-outs stand apart in the source and are kept apart here.

Key:
Format in all cases: cell-based
T47D = test: CellTiter-Glo Viability Assay, breast cancer; details: Homo sapiens, 96 h, breast cancer, four days, read-out: EC50
Experimental: (§1) Fifty-one human cancer cell lines (breast cancer (8 cell lines), colorectal cancer (6 cell lines), haematopoietic & lymphoid tumors (13 cell lines), liver cancer (3 cell lines), lung cancer (4 cell lines), ovarian cancer (4 cell lines), pancreatic cancer (8 cell lines), and prostate cancer (5 cell lines)) were tested to determine the effects of representative compounds of Formulas (I)-(XII) on cellular proliferation, as evaluated using the CellTiter-Glo® Viability Assay.
(§2) For the Cell Viability Assays, cells were plated at 300-3,000 cells/well in 384-well plates in their respective media containing 1% Penicillin-Streptomycin and incubated for four days at 37° C. and 5% CO2. Twenty-eight replicates of DMSO-treated cells served as controls and cells treated with compound were performed in duplicate.
(§3) After incubation, 10 μL of CellTiter-Glo® (Promega) was added to each well allowed to incubate for approximately 12 minutes. This reagent results in cell lysis and generation of a luminescent signal proportional to the amount of ATP present. The amount of ATP is directly proportional to the number of metabolically active, viable cells present in culture. The CellTiter-Glo® Assay generates a luminescent signal, produced by the luciferase reaction (Promega.com).
(§4) After incubation, the luminescence signal was read using an EnVision™ Multilabel Plate Reader (Perkin Elmer). Dose-response curves were generated and EC50 concentration values were calculated using Dotmatics' Studies Software (Bishops Stortford, UK).

BT-549 = test: CellTiter-Glo Viability Assay, breast cancer; details: Homo sapiens, 96 h; BT-549, breast cancer, four days; read-out: EC50
Experimental: as §1, §2, §3, §4

MDA-MB-231-Luc = test: CellTiter-Glo Viability Assay, breast cancer; details: Homo sapiens, 96 h; MDA-MB-231-Luc, breast cancer, four days; read-out: EC50
Experimental: as §1, §2, §3, §4

DU4475 = test: CellTiter-Glo Viability Assay, breast cancer; details: Homo sapiens, DU-4475, 96 h; DU4475, breast cancer, four days; read-out: EC50
Experimental: as §1, §2, §3, §4

CAMA1 = test: CellTiter-Glo Viability Assay, breast cancer; details: Homo sapiens, CAMA-1, 96 h; CAMA1, breast cancer, four days; read-out: EC50
Experimental: as §1, §2, §3, §4

HCC1599 = test: CellTiter-Glo Viability Assay, breast cancer; details: Homo sapiens, 96 h; HCC1599, breast cancer, four days; read-out: EC50
Experimental: as §1, §2, §3, §4

ZR-75-1 = test: CellTiter-Glo Viability Assay, breast cancer; details: Homo sapiens, 96 h; ZR-75-1, breast cancer, four days; read-out: EC50
Experimental: as §1, §2, §3, §4

MCF7 = test: CellTiter-Glo Viability Assay, breast cancer; details: Homo sapiens, 96 h; MCF7, breast cancer, four days; read-out: EC50
Experimental: as §1, §2, §3, §4

[1] = test system: lung cancer (4 cell lines); test: CellTiter-Glo Viability Assay, lung cancer; details: Homo sapiens, inhibition of cancer cell proliferation
Experimental: as §1, §2, §3, §4

[2] = test system: pancreatic cancer (8 cell lines); test: CellTiter-Glo Viability Assay, pancreatic cancer; details: Homo sapiens, inhibition of cancer cell proliferation
Experimental: as §1, §2, §3, §4

[3] = test system: ovarian cancer (4 cell lines); test: CellTiter-Glo Viability Assay, ovarian cancer; details: Homo sapiens, inhibition of cancer cell proliferation
Experimental: as §1, §2, §3, §4

all 50 cell lines = test: CellTiter-Glo Viability Assay, average across all cell lines; details: Homo sapiens; across all 50 cell lines; read-out: average EC50 for inhibition of cancer cell proliferation
Experimental: as §1, §2, §3, §4

[4] = test system: prostate cancer (5 cell lines); test: CellTiter-Glo Viability Assay, prostate cancer; details: Homo sapiens
Experimental: as §1, §2, §3, §4

[5] = test system: colorectal cancer (6 cell lines); test: CellTiter-Glo Viability Assay, colorectal cancer; details: Homo sapiens, inhibition of cancer cell proliferation
Experimental: as §1, §2, §3, §4

[6] = test system: haematopoietic & lymphoid tumors (13 cell lines); test: CellTiter-Glo Viability Assay, haematopoietic & lymphoid tumors; details: Homo sapiens, inhibition of cancer cell proliferation
Experimental: as §1, §2, §3, §4

[7] = test system: liver cancer (3 cell lines); test: CellTiter-Glo Viability Assay, liver cancer; details: Homo sapiens, inhibition of cancer cell proliferation
Experimental: as §1, §2, §3, §4

[8] = A-427, A427 cell line, read-out: Lung cancer, EC50 (μM) A427
[9] = HCC78, HCC-78 cell line, read-out: Lung cancer, EC50 (μM) HCC-78
[10] = NCI-H460 cell line, read-out: Lung cancer, EC50 (μM) NCI-H460
[11] = NCI-H522 cell line, read-out: Lung cancer, EC50 (μM) NCI-H522
[12] = BXPC-3, BxPC3 cell line, read-out: Pancreatic cancer, EC50 BxPC3
[13] = CAPAN-1, Capan1 cell line, read-out: Pancreatic cancer, EC50 Capan1
[14] = Capan-2, Capan2 cell line, read-out: Pancreatic cancer, EC50 Capan2
[15] = MIA PaCa-2 cell line, read-out: Pancreatic cancer, EC50 MIA PaCa-2
[16] = PANC 05.04 cell line, read-out: Pancreatic cancer, EC50 PANC 05.04
[17] = PANC-1 cell line, read-out: Pancreatic cancer, EC50 PANC-1
[18] = UPAFII cell line, read-out: Pancreatic cancer, EC50 UPAFII
[19] = PA-1, PA1 cell line, read-out: Ovarian cancer, EC50 (μM) PA1
[20] = TOV112D, TOV-112D cell line, read-out: Ovarian cancer, EC50 (μM) TOV-112D
[21] = OV-90 cell line, read-out: Ovarian cancer, EC50 (μM) OV-90
[22] = OVCAR-3 cell line, read-out: Ovarian cancer, EC50 (μM) OVCAR-3
[23] = DU-145, read-out: Prostate cancer EC50 Du-145
[24] = PC-3, PC3 cell line, inhibition of cancer cell proliferation, read-out: Prostate cancer EC50 PC3
[25] = 22Rv1 cell line, inhibition of cancer cell proliferation, read-out: Prostate cancer EC50 22Rv1
[26] = LNCap clone FGC cell line, inhibition of cancer cell proliferation, read-out: Prostate cancer EC50 LNCap clone FGC
[27] = VCaP (Sigma) cell line, inhibition of cancer cell proliferation, read-out: Prostate cancer EC50 VCaP (Sigma)
[28] = SW480 cell line, read-out: Colorectal cancer, EC50 (μM) SW480
[29] = DND41, DND-41 cell line, read-out: Haematopoietic & Lymphoid tumors, EC50 (μM) DND-41
[30] = MV4-11, MV-4-11 cell line, read-out: Haematopoietic & Lymphoid tumors, EC50 (μM) MV-4-11
[31] = Rec1, REC-1 cell line, read-out: Haematopoietic & Lymphoid tumors, EC50 (μM) REC-1
[32] = SU-DHL-4, SUDHL4 cell line, read-out: Haematopoietic & Lymphoid tumors, EC50 (μM) SUDHL4
[33] = HL-60 cell line, read-out: Haematopoietic & Lymphoid tumors, EC50 (μM) HL-60
[34] = JM1 cell line, read-out: Haematopoietic & Lymphoid tumors, EC50 (μM) JM1
[35] = JURKAT, Clone E6-1 cell line, read-out: Haematopoietic & Lymphoid tumors, EC50 (μM) JURKAT, Clone E6-1
[36] = JeKo-1 cell line, read-out: Haematopoietic & Lymphoid tumors, EC50 (μM) JeKo-1
[37] = KASUMI-1 cell line, read-out: Haematopoietic & Lymphoid tumors, EC50 (μM) KASUMI-1
[38] = Loucy cell line, read-out: Haematopoietic & Lymphoid tumors, EC50 (μM) Loucy
[39] = MOLT-4 cell line, read-out: Haematopoietic & Lymphoid tumors, EC50 (μM) MOLT-4
[40] = TF-1 cell line, read-out: Haematopoietic & Lymphoid tumors, EC50 (μM) TF-1
[41] = TOLEDO cell line, read-out: Haematopoietic & Lymphoid tumors, EC50 (μM) TOLEDO
[42] = SNU-398, SNU398 cell line, read-out: Liver cancer, EC50 SNU398
[43] = HEPG2 cell line, read-out: Liver cancer, EC50 HEPG2
[44] = PLC/PRF/5 cell line, read-out: Liver cancer, EC50 PLC/PRF/5

In the case of `c1cc2cc(c1)-c1cncc3[nH]c(nc13)-c1n[nH]c3ccc(cc13)-c1cncc(c1)CNC2` [Compound 54], the EC50 (T47D) is reported as 0.167 µM, the EC50 (BT-549) is reported as 0.075 µM and the EC50 (MDA-MB-231-Luc) is reported as 0.153 µM. For the same compound, the EC50 (DU4475) was 0.057 µM, the EC50 (CAMA1) was 0.167 µM and the EC50 (HCC1599) was 0.085 µM. The EC50 (ZR-75-1) was 0.145 µM, the EC50 (MCF7) was 0.794 µM and the EC50 [1, 8] was 0.04 µM. The EC50 [1, 9] was 0.225 µM, the EC50 [1, 10] was greater than 3.5 µM and the EC50 [1, 11] was 0.04 µM. The EC50 [2, 12] was 0.361 µM, the EC50 [2, 13] was 0.569 µM and the EC50 [2, 14] was 0.094 µM. The EC50 [2, 15] was 0.041 µM, the EC50 [2, 16] was 0.453 µM and the EC50 [2, 17] was 2.68 µM. It also gave an EC50 [2, 18] of 0.259 µM, an EC50 [3, 19] of 0.147 µM and an EC50 [3, 20] of 0.065 µM. It also gave an EC50 [3, 21] of 0.532 µM, an EC50 [3, 22] of 0.037 µM and an EC50 (all 50 cell lines) of 0.453 µM. The EC50 [4, 23] was 0.098 µM, the EC50 [4, 24] was 0.055 µM and the EC50 [4, 25] was 0.117 µM. For the same compound, the EC50 [4, 26] was 0.234 µM, the EC50 [4, 27] was 0.162 µM and the EC50 ([5]; HCT-116, HCT116 cell line, read-out: Colorectal cancer, EC50 (μM) HCT116) was 0.056 µM. The EC50 ([5]; HT-29, HT29 cell line, read-out: Colorectal cancer, EC50 (μM) HT29) was 1.28 µM, the EC50 ([5]; SW-620, SW620 cell line, read-out: Colorectal cancer, EC50 (μM) SW620) was 0.041 µM and the EC50 ([5]; DLD-1 cell line, read-out: Colorectal cancer, EC50 (μM) DLD-1) was 0.136 µM. The EC50 ([5]; SW48 cell line, read-out: Colorectal cancer, EC50 (μM) SW48) was 0.049 µM, the EC50 [5, 28] was 0.042 µM and the EC50 [6, 29] was 0.031 µM. For the same compound, the EC50 [6, 30] was 0.005 µM, the EC50 [6, 31] was 0.109 µM and the EC50 [6, 32] was 0.036 µM. The EC50 [6, 33] was 0.121 µM, the EC50 [6, 34] was 0.026 µM and the EC50 [6, 35] was 0.17 µM. It also gave an EC50 [6, 36] of 0.017 µM, an EC50 [6, 37] of 0.058 µM and an EC50 [6, 38] of 0.041 µM. It also gave an EC50 [6, 39] of 0.254 µM, an EC50 [6, 40] of 0.108 µM and an EC50 [6, 41] of 0.022 µM. The EC50 [7, 42] was 0.021 µM, the EC50 [7, 43] was 0.377 µM and the EC50 [7, 44] was 1.77 µM.
`Cc1n[nH]c2ccc(-c3cncc(N[C@H]4CC[C@H](O)CC4)n3)cc12` [Compound 65] was tested, and the EC50 (T47D) was 0.886 µM, the EC50 (BT-549) was 0.414 µM and the EC50 (MDA-MB-231-Luc) was 0.106 µM. For the same compound, the EC50 (DU4475) was 0.114 µM, the EC50 (CAMA1) was 0.457 µM and the EC50 (HCC1599) was 0.209 µM. The EC50 (ZR-75-1) was 0.617 µM, the EC50 (MCF7) was 0.989 µM and the EC50 [1, 8] was 0.26 µM. For the same compound, the EC50 [1, 9] was 1.19 µM, the EC50 [1, 10] was 0.81 µM and the EC50 [1, 11] was 0.379 µM. For the same compound, the EC50 [2, 12] was 0.678 µM, the EC50 [2, 13] was 0.353 µM and the EC50 [2, 14] was 0.76 µM. The EC50 [2, 15] was 0.539 µM, the EC50 [2, 16] was 1.28 µM and the EC50 [2, 17] was 1.49 µM. The EC50 [2, 18] was 0.594 µM, the EC50 [3, 19] was 0.146 µM and the EC50 [3, 20] was 0.437 µM. It also gave an EC50 [3, 21] of 0.918 µM, an EC50 [3, 22] of 0.645 µM and an EC50 (all 50 cell lines) of 0.615 µM. The EC50 [4, 23] was 0.665 µM, the EC50 [4, 24] was 0.557 µM and the EC50 [4, 25] was 0.803 µM. It also gave an EC50 [4, 26] of 0.508 µM, an EC50 [4, 27] of 2.94 µM and an EC50 [5, 28] of 0.456 µM. For the same compound, the EC50 [6, 29] was 0.635 µM, the EC50 [6, 30] was 0.008 µM and the EC50 [6, 31] was 0.085 µM. For the same compound, the EC50 [6, 32] was 0.309 µM, the EC50 [6, 33] was 1.01 µM and the EC50 [6, 34] was 0.319 µM. It also gave an EC50 [6, 35] of 0.78 µM, an EC50 [6, 36] of 0.243 µM and an EC50 [6, 37] of 0.184 µM. For the same compound, the EC50 [6, 38] was 0.576 µM, the EC50 [6, 39] was 0.715 µM and the EC50 [6, 40] was 0.392 µM. It also gave an EC50 [6, 41] of 0.141 µM, an EC50 [7, 42] of 0.132 µM and an EC50 [7, 43] of 0.667 µM. The EC50 [7, 44] was 1.26 µM.
